# In US6375969B1, “Broadcast carriers for pesticides and their use” (priority 1996, dated 2002):
# Assay: Volatile materials test in ventilating oven
# Format: physicochemical
# Conditions: after 2 hours at 141° F. (=60.5° C.) in a ventilating oven
# Method: The moisture content of raw material Celite 500 is 3.7 weight percent. So, the weight of raw material Celite 500 is close to the dry weight of Celite 500. According to the product specifications of Supragil MNS/90, Soprophor S/40-P, and Supragil WP, the moisture contents of these components are no higher than 2 weight percent. Also, samples of chlorpyrifos technical were tested for volatile materials in a ventilating oven. The weight loss after 2 hours at 141° F. (=60.5° C.) was only 0.6 weight percent. […] Therefore, the dry spreadable granular product as manufactured above contains approximately 2.0 weight percent chlorpyrifos.
smiles,measurement,value
"CCOP(=S)(OCC)Oc1nc(Cl)c(Cl)cc1Cl [chlorpyrifos technical, Chlorpyrifos]",weight loss (volatile materials),0.6 weight percent
